Measured values from patent US20090275610A1, “TRICYCLIC OPIOID MODULATORS” (priority 2005, published 2009).
Values joined by “and” are separate entries in the source; they are usually repeats but may differ in a detail not shown here. Equal entries are not always repeated. Where two headings read alike, the source gives them in different places.

How the values were obtained:
delta opioid receptor = target: T1, delta opioid receptor (Rattus norvegicus, UniProt P33533); experiment: Rat brain delta opioid receptor binding assay; conditions: rat forebrain membranes, [3H]DPDPE or [3H]naltrindole, 25° C., 2.5 h
T1 construct: the forebrains were homogenized in Tris buffer in a Teflon®-glass homogenizer; from tissue; host or cells: forebrain of male Wistar rats (particulate membrane preparation)
T1 sequence (P33533 whole entry): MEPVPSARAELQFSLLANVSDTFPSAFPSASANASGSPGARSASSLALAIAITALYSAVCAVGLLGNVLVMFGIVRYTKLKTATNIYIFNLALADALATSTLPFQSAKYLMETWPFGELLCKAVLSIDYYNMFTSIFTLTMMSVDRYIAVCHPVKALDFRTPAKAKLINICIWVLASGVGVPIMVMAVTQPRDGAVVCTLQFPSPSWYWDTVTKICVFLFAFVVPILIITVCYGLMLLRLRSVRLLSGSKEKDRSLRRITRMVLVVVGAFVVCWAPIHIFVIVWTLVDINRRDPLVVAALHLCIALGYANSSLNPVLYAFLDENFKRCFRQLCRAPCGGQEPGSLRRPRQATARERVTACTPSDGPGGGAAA
Description: Rat Brain Delta Opioid Receptor Binding Assay
(§1) Procedure: Male, Wistar rats (150-250 g, VAF, Charles River, Kingston, N.Y.) were killed by CO2, and their brains removed and placed immediately in ice cold Tris HCl buffer (50 mM, pH 7.4). The forebrains were separated from the remainder of the brain by a coronal transection, beginning dorsally at the colliculi and passing ventrally through the midbrain-pontine junction. After dissection, the forebrains were homogenized in Tris buffer in a Teflon®-glass homogenizer. The homogenate was diluted to a concentration of 1 g of forebrain tissue per 80 mL Tris and centrifuged at 39,000×g for 10 min. The pellet was resuspended in the same volume of Tris buffer containing 5 mM MgCl2 with several brief pulses from a Polytron homogenizer. This particulate preparation was used for the delta opioid binding assays.
Analysis: The data from the scintillation counter were used to calculate either the % inhibition compared to control binding (when only a single concentration of test compound was evaluated) or a Ki value (when a range of concentrations was tested). Percent inhibition was calculated as: [(total dpm−test compound dpm)/(total dpm−nonspecific dpm)]*100. Kd and Ki values were calculated using GraphPad PRISM data analysis program.

mu opioid receptor = target: T2, mu opioid receptor (Rattus norvegicus, UniProt P33535); experiment: Rat brain mu opioid receptor binding assay; conditions: rat forebrain membranes, [3H]DAMGO, 25° C., 2.5 h
T2 construct: the forebrains were homogenized in Tris buffer in a Teflon®-glass homogenizer; from tissue; host or cells: forebrain of male Wistar rats (particulate membrane preparation)
T2 sequence (P33535 whole entry): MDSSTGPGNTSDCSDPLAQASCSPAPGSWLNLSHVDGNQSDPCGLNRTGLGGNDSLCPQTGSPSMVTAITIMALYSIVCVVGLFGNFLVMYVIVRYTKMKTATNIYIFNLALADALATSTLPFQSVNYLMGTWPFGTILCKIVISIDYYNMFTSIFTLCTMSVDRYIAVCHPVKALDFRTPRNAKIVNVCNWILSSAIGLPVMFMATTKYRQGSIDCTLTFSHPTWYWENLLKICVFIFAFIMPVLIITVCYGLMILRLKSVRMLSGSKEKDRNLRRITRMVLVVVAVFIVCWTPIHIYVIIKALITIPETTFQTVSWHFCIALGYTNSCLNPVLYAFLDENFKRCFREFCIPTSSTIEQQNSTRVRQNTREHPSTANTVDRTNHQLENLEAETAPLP
Description: Rat Brain Mu Opioid Receptor Binding Assay
as §1
Analysis: The data from the scintillation counter were used to calculate either the % inhibition compared to control binding (when only a single concentration of test compound was evaluated) or a Ki value (when a range of concentrations tested). Percent inhibition was calculated as: [(total dpm−test compound dpm)/(total dpm−nonspecific dpm)]*100. Kd and Ki values were calculated using GraphPad PRISM data analysis program.

[1] = target: T3, delta opioid receptor (NG108-15 cell membranes) (Mus musculus, UniProt P32300); experiment: [35S]GTPγS binding assay in NG108-15 cell membranes (delta opioid); type: biochemical; conditions: for delta GTPγS binding Rel Eff: value in parentheses
T3 construct: NG108-15 cell membranes were purchased from Applied Cell Sciences (Rockville, Md.); host or cells: NG108-15 cell membranes (purchased)
T3 sequence (P32300 whole entry): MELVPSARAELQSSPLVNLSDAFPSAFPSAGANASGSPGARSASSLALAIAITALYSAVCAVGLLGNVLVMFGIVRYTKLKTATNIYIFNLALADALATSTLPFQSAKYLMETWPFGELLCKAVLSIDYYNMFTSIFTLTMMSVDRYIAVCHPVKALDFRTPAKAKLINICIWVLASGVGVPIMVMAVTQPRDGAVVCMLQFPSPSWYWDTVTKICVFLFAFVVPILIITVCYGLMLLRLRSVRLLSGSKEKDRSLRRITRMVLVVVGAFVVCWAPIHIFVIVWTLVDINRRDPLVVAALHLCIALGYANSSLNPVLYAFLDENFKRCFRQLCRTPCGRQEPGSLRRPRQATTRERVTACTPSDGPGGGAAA
Description: Functional Assay: [^35S]GTPγS Binding Assay in NG108-15 Cell Membranes (Delta Opioid)
Methods: NG108-15 cell membranes were purchased from Applied Cell Sciences (Rockville, Md.). A sample (8 mg/mL) of membrane protein suspended in 10 mM TRIS-HCl pH 7.2, 2 mM EDTA, 10% sucrose. Membranes were maintained at 4-8° C. A 1 mL volume of membranes was added into 10 mL cold binding assay buffer. The assay buffer contained 50 mM Tris, pH 7.6, 5 mM MgCl2, 100 mM NaCl, 1 mM DTT and 1 mM EGTA. The membrane suspension was homogenized twice with a Polytron, and centrifuged at 3000 rpm for 10 min. The supernatant was then centrifuged at 18,000 rpm for 20 min. Ten mL assay buffer was added into the pellet containing tube. The pellet and buffer were mixed with a Polytron.
Incubation procedure: The pellet membranes (75 μg/mL) were preincubated with SPA (10 mg/mL) at 25° C. for 45 min in the assay buffer. The SPA (5 mg/mL) coupled with membranes (37.5 μg/mL) was then incubated with 0.1 nM [^35S]GTPγS in the same Tris buffer containing 100 μM GDP in total volume of 200 μL. Increasing concentrations of receptor agonists were used to stimulate [^35S]-GTPγS binding. The basal binding was tested in the absence of agonists and non-specific binding was tested in the presence of 10 μM unlabeled GTPγS. The data were analyzed on a Packard Top Count.
% of Basal=(stimulated−non specific)*100/(basal−non specific).
(§2) EC50 values were calculated using GraphPad Prism.

[2] = target: T4, hMOR (CHO-hMOR cell membranes) (Homo sapiens, UniProt P35372); experiment: [35S]GTPγS binding assay in CHO-hMOR cell membranes; type: biochemical; conditions: for mu GTPγS binding Rel Eff: value in parentheses
T4 construct: host or cells: CHO cells expressing hMOR (purchased membranes)
T4 sequence (P35372 whole entry): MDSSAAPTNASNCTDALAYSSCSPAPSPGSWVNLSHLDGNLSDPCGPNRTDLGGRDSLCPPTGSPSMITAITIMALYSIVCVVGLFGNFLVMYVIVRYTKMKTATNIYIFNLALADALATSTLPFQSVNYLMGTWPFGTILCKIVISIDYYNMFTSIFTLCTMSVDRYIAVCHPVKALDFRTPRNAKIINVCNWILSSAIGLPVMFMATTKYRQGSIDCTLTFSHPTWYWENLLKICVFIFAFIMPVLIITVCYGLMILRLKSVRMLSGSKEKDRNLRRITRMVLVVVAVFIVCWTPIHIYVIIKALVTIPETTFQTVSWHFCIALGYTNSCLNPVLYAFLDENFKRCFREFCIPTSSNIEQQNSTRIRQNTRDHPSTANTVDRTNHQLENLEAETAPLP
Description: Functional Assay: [^35S]GTPγS Binding Assays in CHO-hMOR Cell Membranes
Methods: CHO-hMOR cell membranes were purchased from Receptor Biology, Inc. (Baltimore, Md.). About 10 mg/mL of membrane protein was suspended in 10 mM TRIS-HCl pH 7.2, 2 mM EDTA, 10% sucrose, and the suspension kept on ice. A 1 mL volume of membranes was added to 15 mL cold binding assay buffer containing 50 mM HEPES, pH 7.6, 5 mM MgCl2, 100 mM NaCl, 1 mM DTT and 1 mM EDTA. The membrane suspension was homogenized with a Polytron and centrifuged at 3,000 rpm for 10 min. The supernatant was then centrifuged at 18,000 rpm for 20 min. The pellet was resuspended in 10 mL assay buffer with a Polytron. The membranes were preincubated with wheat germ agglutinin coated SPA beads (Amersham) at 25° C. for 45 min in the assay buffer. The SPA bead (5 mg/mL) coupled membranes (10 μg/mL) were then incubated with 0.5 nM [^35S]GTPγS in the assay buffer. […] A range of concentrations of receptor agonist was used to stimulate [^35S]GTPγS binding. Both basal and non-specific binding was tested in the absence of agonist; non-specific binding determination included 10 μM unlabeled GTPγS.
Compounds were tested for function as antagonists by evaluating their potential to inhibit agonist-stimulated GTPγS binding. Radioactivity was quantified on a Packard TopCount. The following parameters were calculated:
as §2

[3] = read-out: rDOR (Ki, nM): Rat delta opioid receptor binding constant
[4] = read-out: rMOR (Ki, nM): Rat mu opioid receptor binding constant
[5] = read-out: delta GTPγS binding EC50
[6] = CHO-hMOR cell membranes, read-out: mu GTPγS binding EC50
[7] = rDOR (Ki, nM): Rat delta opioid receptor binding constant
[8] = rMOR (Ki, nM): Rat mu opioid receptor binding constant

CC=C(C)CN1C2CCC1CC(=C1c3ccccc3Oc3c(O)cccc31)C2 [Cpd 27]
Ki (delta opioid receptor; [3]): 0.35 nM | Ki (mu opioid receptor; [4]): 2.03 nM | EC50 [1, 5]: 9.8 nM | EC50 [2, 6]: > 10000 nM

O=C(Nc1ccccc1)c1cccc2c1Oc1ccccc1C2=C1CC2CCC(C1)N2 [Cpd 12, 9-(8-Azabicyclo[3.2.1]oct-3-ylidene)-9H-xanthene-4-carboxylic acid phenylamide]
Ki (delta opioid receptor; [7]): 272 nM and 67.9 nM | Ki (mu opioid receptor; [8]): 32 nM | EC50 ([1]; delta GTPγS binding EC50 (nM)): 30.3 nM | delta GTPγS binding Rel Eff [1]: 1.03 | EC50 [2]: 611 nM | mu GTPγS binding Rel Eff ([2]; CHO-hMOR cell membranes): 0.96

Oc1cccc2c1Oc1ccccc1C2=C1CC2CCC(C1)N2Cc1cccnc1 [Cpd 31, 9-(8-pyridin-3-ylmethyl-8-azabicyclo[3.2.1]oct-3-ylidene)-9H-xanthen-4-ol]
Ki (delta opioid receptor; [7]): 0.028 nM | Ki (mu opioid receptor; [8]): 1.23 nM | EC50 [1, 5]: 134 nM | EC50 [2, 6]: 8090 nM

Oc1cccc2c1Oc1ccccc1C2=C1CC2CCC(C1)N2Cc1c[nH]c(-c2ccccc2)n1 [Cpd 28]
Ki (delta opioid receptor; [3]): 192 nM | Ki (mu opioid receptor; [4]): 58.5 nM | EC50 [1, 5]: 1380 nM | EC50 [2, 6]: > 10000 nM

Oc1cccc2c1Oc1ccccc1C2=C1CC2CCC(C1)N2Cc1ccoc1 (single isomer, unassigned) [Cpd 58, 9-(8-Furan-3-ylmethyl-8-azabicyclo[3.2.1]oct-3-ylidene)-9H-xanthen-4-ol]
Ki (delta opioid receptor; [7]): 0.1 nM | Ki (mu opioid receptor; [8]): 0.45 nM | EC50 [1, 5]: 2.6 nM

O=C(NCc1ccccc1)c1cccc2c1Oc1ccccc1C2=C1CC2CCC(C1)N2 [Cpd 13, 9-(8-Azabicyclo[3.2.1]oct-3-ylidene)-9H-xanthene-4-carboxylic acid benzylamide]
Ki (mu opioid receptor; [8]): 15 nM and 12.7 nM | EC50 ([1]; delta GTPγS binding EC50 (nM)): 5.68 nM | delta GTPγS binding Rel Eff [1]: 0.87 | EC50 [2]: 717 nM | mu GTPγS binding Rel Eff ([2]; CHO-hMOR cell membranes): 0.67

O=CNc1cccc2c1Oc1ccccc1C2=C1CC2CCC(C1)N2 [Cpd 44, N-[9-(8-Azabicyclo[3.2.1]oct-3-ylidene)-9H-xanthen-4-yl]-formamide]
Ki (delta opioid receptor; [7]): 19.2 nM | Ki (mu opioid receptor; [8]): 45.2 nM | EC50 ([1]; delta GTPγS binding EC50 (nM)): 7.03 nM

NC(=O)c1cccc2c1Oc1ccccc1C2=C1CC2CCC(C1)N2 (single isomer, unassigned) [Cpd 39, 9-(8-Azabicyclo[3.2.1]oct-3-ylidene)-9H-xanthene-4-carboxylic acid amide]
Ki (delta opioid receptor; [7]): 31.9 nM | Ki (mu opioid receptor; [8]): 96.4 nM | EC50 ([1]; delta GTPγS binding EC50 (nM)): 1240 nM

Oc1cccc2c1Oc1ccccc1C2=C1CC2CCC(C1)N2Cc1ccccc1 (single isomer, unassigned) [Cpd 46, 9-(8-Benzyl-8-azabicyclo[3.2.1]oct-3-ylidene)-9H-xanthen-4-ol]
Ki (delta opioid receptor; [7]): 0.03 nM | Ki (mu opioid receptor; [8]): 0.19 nM | EC50 [1, 5]: 10.2 nM

Oc1cccc2c1Oc1ccccc1C2=C1CCNCC1 [Cpd 16, 9-Piperidin-4-ylidene-9H-xanthen-4-ol]
Ki (delta opioid receptor; [7]): 15.1 nM | Ki (mu opioid receptor; [8]): 776 nM | EC50 ([1]; delta GTPγS binding EC50 (nM)): 964 nM

O=C(NCCc1ccccc1)c1cccc2c1Oc1ccccc1C2=C1CC2CCC(C1)N2 [Cpd 14, 9-(8-Azabicyclo[3.2.1]oct-3-ylidene)-9H-xanthene-4-carboxylic acid phenethyl-amide]
Ki (mu opioid receptor; [8]): 44 nM and 36.2 nM | EC50 ([1]; delta GTPγS binding EC50 (nM)): 10.4 nM | delta GTPγS binding Rel Eff [1]: 0.92 | EC50 [2]: 997 nM | mu GTPγS binding Rel Eff ([2]; CHO-hMOR cell membranes): 0.54

CNC(=O)c1cccc2c1Oc1ccccc1C2=C1CC2CCC(C1)N2 [Cpd 10, 9-(8-Azabicyclo[3.2.1]oct-3-ylidene)-9H-xanthene-4-carboxylic acid methylamide]
Ki (mu opioid receptor; [8]): 27 nM and 51 nM | EC50 ([1]; delta GTPγS binding EC50 (nM)): 617 nM | EC50 [2]: > 10000 nM

O=C(Nc1ccccc1)c1cccc2c1Oc1ccccc1C2=C1CC2CCC(C1)N2 (single isomer, unassigned) [Cpd 48, 9-(8-Azabicyclo[3.2.1]oct-3-ylidene)-9H-xanthene-4-carboxylic acid phenylamide]
Ki (delta opioid receptor; [7]): 3.71 nM | Ki (mu opioid receptor; [8]): 3.58 nM | EC50 [1, 5]: 101 nM

Oc1cccc2c1Oc1ccccc1C2=C1CC2CCC(C1)N2Cc1ccccc1 (single isomer, unassigned) [Cpd 45, 9-(8-Benzyl-8-azabicyclo[3.2.1]oct-3-ylidene)-9H-xanthen-4-ol]
Ki (delta opioid receptor; [7]): 9.62 nM | Ki (mu opioid receptor; [8]): 11.4 nM | EC50 ([1]; delta GTPγS binding EC50 (nM)): 1420 nM

NC(=O)c1cccc2c1Sc1ccccc1C2=C1CC2CCC(C1)N2 [Cpd 63, 9-(8-Azabicyclo[3.2.1]oct-3-ylidene)-9H-thioxanthene-4-carboxylic acid amide]
Ki (delta opioid receptor; [7]): 0.71 nM | Ki (mu opioid receptor; [8]): 3.31 nM | EC50 ([1]; delta GTPγS binding EC50 (nM)): 2.7 nM

O=C(NCCc1ccccc1)c1cccc2c1Oc1ccccc1C2=C1CC2CCC(C1)N2 (single isomer, unassigned) [Cpd 56, 9-(8-Azabicyclo[3.2.1]oct-3-ylidene)-9H-xanthene-4-carboxylic acid phenethylamide]
Ki (delta opioid receptor; [7]): 49.6 nM | Ki (mu opioid receptor; [8]): 6.96 nM | EC50 [1, 5]: 40.1 nM

Oc1cccc2c1Oc1ccccc1C2=C1CC2CCC(C1)N2Cc1cccnc1 (single isomer, unassigned) [Cpd 50, 9-(8-Pyridin-3-ylmethyl-8-azabicyclo[3.2.1]oct-3-ylidene)-9H-xanthen-4-ol]
Ki (delta opioid receptor; [7]): 0.08 nM | Ki (mu opioid receptor; [8]): 0.68 nM | EC50 [1, 5]: 218 nM

CN1C2CCC1CC(=C1c3ccccc3Oc3c(O)cccc31)C2 (single isomer, unassigned) [Cpd 51, 9-(8-Methyl-8-azabicyclo[3.2.1]oct-3-ylidene)-9H-xanthen-4-ol]
Ki (delta opioid receptor; [7]): 11.2 nM | Ki (mu opioid receptor; [8]): 138 nM | EC50 ([1]; delta GTPγS binding EC50 (nM)): 59.2 nM
